Experimental data as given in the NIST ThermoML archive (doi:10.1016/j.tca.2008.12.007).
Where “and” joins values, the source holds several entries; their conditions need not be identical. Equal values may be shown once.

Assay: xn = mol fraction of the nth substance listed
Details: 101 kPa, Liquid, Vibrating tube method

C1CCCNCC1 [azacycloheptane] + O
mass density
Details	283.15 K	288.15 K	293.15 K	298.15 K	303.15 K	308.15 K	313.15 K
x2 = 0.0199	891.47 kg/m3	887.05 kg/m3	882.62 kg/m3	878.18 kg/m3	873.74 kg/m3	869.29 kg/m3	864.83 kg/m3
x2 = 0.0395	892.56 kg/m3	888.13 kg/m3	883.7 kg/m3	879.25 kg/m3	874.8 kg/m3	870.34 kg/m3	865.87 kg/m3
x2 = 0.0821	895.27 kg/m3	890.84 kg/m3	886.39 kg/m3	881.94 kg/m3	877.47 kg/m3	872.99 kg/m3	868.49 kg/m3
x2 = 0.1198	897.59 kg/m3	893.16 kg/m3	888.7 kg/m3	884.23 kg/m3	879.75 kg/m3	875.26 kg/m3	870.75 kg/m3
x2 = 0.1594	900.05 kg/m3	895.61 kg/m3	891.15 kg/m3	886.67 kg/m3	882.19 kg/m3	877.68 kg/m3	873.16 kg/m3
x2 = 0.1994	902.85 kg/m3	898.4 kg/m3	893.94 kg/m3	889.46 kg/m3	884.96 kg/m3	880.45 kg/m3	875.92 kg/m3
x2 = 0.2498	906.32 kg/m3	901.88 kg/m3	897.41 kg/m3	892.92 kg/m3	888.42 kg/m3	883.9 kg/m3	879.35 kg/m3
x2 = 0.3	909.81 kg/m3	905.38 kg/m3	900.91 kg/m3	896.42 kg/m3	891.91 kg/m3	887.38 kg/m3	–
x2 = 0.3499	913.73 kg/m3	909.3 kg/m3	904.84 kg/m3	900.36 kg/m3	895.85 kg/m3	891.32 kg/m3	–
x2 = 0.4	917.67 kg/m3	913.25 kg/m3	908.79 kg/m3	904.32 kg/m3	899.81 kg/m3	895.28 kg/m3	–
x2 = 0.4529	922.26 kg/m3	917.86 kg/m3	913.42 kg/m3	908.96 kg/m3	904.46 kg/m3	899.94 kg/m3	–
x2 = 0.5008	926.61 kg/m3	922.24 kg/m3	917.83 kg/m3	913.38 kg/m3	908.91 kg/m3	904.4 kg/m3	–
x2 = 0.5041	926.61 kg/m3	922.23 kg/m3	917.82 kg/m3	913.38 kg/m3	908.91 kg/m3	904.4 kg/m3	–
x2 = 0.5508	931.05 kg/m3	926.72 kg/m3	922.34 kg/m3	917.93 kg/m3	913.48 kg/m3	909 kg/m3	–
x2 = 0.5992	935.7 kg/m3	931.42 kg/m3	927.09 kg/m3	922.72 kg/m3	918.31 kg/m3	913.86 kg/m3	–
x2 = 0.65	941.01 kg/m3	936.79 kg/m3	932.53 kg/m3	928.22 kg/m3	923.88 kg/m3	919.49 kg/m3	–
x2 = 0.699	946.42 kg/m3	942.29 kg/m3	938.12 kg/m3	933.9 kg/m3	929.63 kg/m3	925.32 kg/m3	–
x2 = 0.7496	952.51 kg/m3	948.5 kg/m3	944.46 kg/m3	940.36 kg/m3	936.22 kg/m3	932.02 kg/m3	–
x2 = 0.7994	959.33 kg/m3	955.51 kg/m3	951.64 kg/m3	947.71 kg/m3	943.73 kg/m3	939.69 kg/m3	–
x2 = 0.8398	965.5 kg/m3	961.88 kg/m3	958.2 kg/m3	954.47 kg/m3	950.68 kg/m3	946.83 kg/m3	–
x2 = 0.8799	972.62 kg/m3	969.3 kg/m3	965.9 kg/m3	962.45 kg/m3	958.91 kg/m3	955.31 kg/m3	–
x2 = 0.92	981.18 kg/m3	978.28 kg/m3	975.3 kg/m3	972.24 kg/m3	969.1 kg/m3	965.86 kg/m3	–
x2 = 0.9597	–	–	–	984.66 kg/m3 and 984.68 kg/m3	–	–	–
x2 = 0.9599	991.53 kg/m3	989.32 kg/m3	986.99 kg/m3	984.54 kg/m3	981.98 kg/m3	979.29 kg/m3	–
x2 = 0.96	991.6 kg/m3	989.39 kg/m3	987.06 kg/m3	984.61 kg/m3	982.04 kg/m3	979.35 kg/m3	–
x2 = 0.9699	994.44 kg/m3	992.49 kg/m3	990.4 kg/m3	988.16 kg/m3	985.8 kg/m3	983.3 kg/m3	–
x2 = 0.9798	–	–	–	991.9 kg/m3	–	–	–
x2 = 0.98	997.1 kg/m3	995.56 kg/m3	993.8 kg/m3	991.86 kg/m3	989.75 kg/m3	987.48 kg/m3	–
x2 = 0.9851	–	–	–	993.77 kg/m3	–	–	–
x2 = 0.9882	–	–	–	994.59 kg/m3	–	–	–
x2 = 0.9899	–	–	–	994.98 kg/m3	–	–	–
x2 = 0.9921	–	–	–	995.43 kg/m3	–	–	–
x2 = 0.994	–	–	–	995.81 kg/m3	–	–	–
